Like-named read-outs stand apart in the source and are kept apart here.
Columns and labels:
[1] = test system: P. falciparum CQ-resistant (K1) strain; set-up: method as in PMID 24900630; settings: read-out: in vitro antiplasmodial activity IC50; cited from earlier work
[2] = test system: P. falciparum CQ-resistant (W2) strain; set-up: method as in PMID 24900630; settings: read-out: in vitro antiplasmodial activity IC50; cited from earlier work
[3] = test system: P. falciparum CQ-sensitive (3D7) strain; set-up: method as in PMID 24900630; settings: read-out: in vitro antiplasmodial activity IC50; cited from earlier work
[4] = stock solution stability in methanol; assay type: physicochemical; settings: for stock solution stability in methanol, % Reference (peak area vs fresh): 100.0 μg/ml in methanol, eight days, n = 6; for stability in methanol (in words): at room temperature, 5°C, and -20°C
Protocol: The stability of TK900D and TK900E in methanol was evaluated at room temperature, ~ 5°C and ~ -20°C. Stock solutions with concentrations of 100.0 μg/ml of TK900D and the internal standard were prepared in methanol. Three aliquots of each of the stock solutions were kept at room temperature, ~ 5 °C, and ~ –20°C, respectively, for eight days. After diluting the stored stock solutions in injection solvent to a 100.0 ng/ml, the stability of TK900D and that of the internal standard were assessed by comparing the peak areas obtained from the stored stock solutions with peak areas of the freshly prepared stock solutions. For stock solution results to be acceptable the percentage reference value should not exceed 15%.

CHO mammalian cell line = test system: CHO mammalian cell line; set-up: method as in PMID 24900630; settings: MTT assay, read-out: cytotoxicity IC50; cited from earlier work
[5] = freeze and thaw stability in blood; assay type: in vitro ADME, human; settings: for Freeze and thaw stability, % Bias from nominal: blood, three freeze-thaw cycles from ~ -80°C, n = 6
Protocol: Quality control blood samples at high and low concentration, 800.0 and 10.01 ng/ml respectively, of TK900D stored frozen at ~ -80°C were allowed to thaw completely unassisted at room temperature and then refrozen for 12 to 24 hours. After three such freeze-thaw cycles the samples were assayed in the third validation run and the measured concentrations were compared with the nominal concentrations of these samples.

[6] = pharmacokinetic evaluation in mice (oral and IV), blood levels by LC-MS/MS; assay type: in vivo, C57/BL6 mice; settings: for Blood CL total / Vd / Vss / AUC 0 - ∞ / Apparent t 1/2 / T max / Bioavailability / Cmax: male C57/BL6 mice; for AUC 0 - ∞ / Apparent t 1/2 / Cmax: blood; for Apparent t 1/2: mean of 5; for half-life: male, C57/BL6, mouse, whole blood, mice, read-out: apparent half-life, range
Protocol: Snapshot pharmacokinetic evaluations were performed on a number of analogues from the TK-series anti-malarial compounds. […] The test compound dissolved in a 20 mM Sodium acetate buffer (pH 4.0): Ethanol: PEG400 (70:5:25; v/v/) drug vehicle was administered orally to healthy C57/BL6 mice (n = 5) at doses of 40 and 20 mg/kg, and intravenously at doses of 5 and 2.5 mg/kg. Blood samples were collected at predetermined sampling times (except for the first sampling time, i.e. 5 minutes after dosing for the IV group and 10 minutes for the oral group, the sampling times were 0.5,1, 3, 5, 7, 12 and 24 h after dosing) by bleeding the tip of the tail, and analysed using a validated LC-MS/MS assay. Back-calculated concentrations of the blood samples were obtained from a standard regression curve with nine concentration levels (3.910 to 1000 ng/ml). Concentration vs. time profiles were constructed and the data analysed with Summit PK software to obtain the pharmacokinetic parameters.

[7] = short-term (on-bench) stability in blood; assay type: in vitro ADME, human; settings: for On bench stability, % Bias from nominal: blood, room temperature on bench, n = 6
Protocol: […] The samples were assayed in one of the validation batches. The measured concentrations were compared with the nominal concentrations of these samples.

[8] = on-instrument stability (OIS) of extracted samples; assay type: physicochemical; settings: for OIS (on-instrument stability), % Bias: extracted samples on instrument, n = 6; for on-instrument stability (in words): ~ 8.2 h on-instrument
Protocol: In order to assess the stability of the analytes while awaiting injection on instrument, on-instrument stability (OIS) was assessed for the period of time that the extracted samples were expected to stay on-instrument during the batch run-time (~ 9 h). Quality control samples at high and low concentrations (800.0 ng/ml and 10.01 ng/ml, respectively), were extracted in replicates of six and injected at the beginning and end of the run (i.e. six QC-high and six QC-low at the beginning of the run and another set of six QC-high and QC-low at the end of the run bracketed with quality control samples). The mean measured concentration of the OIS-samples (injected at the end of the run) and OIS-reference samples (injected at the beginning of the run) were compared: in order to be acceptable, their percentage difference should be within ± 15%.

[9] = long-term stability in human whole blood; assay type: in vitro ADME; settings: for Long term stability, % Bias from nominal: human whole blood, ~ -80°C, 181 days, n = 6
Protocol: For the determination of long-term stability in human whole blood, TK900D spiked quality control samples at 800.0 ng/ml and 10.01 ng/ml were stored at ~ -80°C for 181 days (long enough to cover the time period elapsed from the first day of sample collection to the final sample analysis). These samples were thawed on the day of testing and run together with freshly prepared calibration standards and quality controls and the values were calculated from the resulting calibration curve obtained from the calibration standards.

[10] = other: oral and intravenous, over all oral and IV dose groups
[11] = as summarised in abstract (matches oral 40 and 20 mg/kg groups)

SMILES: CCN(CC)CCCC(C)Nc1ccnc2cc(Cl)ccc12 (stereo not drawn) [CQ, Chloroquine, reference compound]
- IC50 [1]: 36 nM
- IC50 [2]: 59.1 nM
- IC50 [3]: 0.2 nM

SMILES: CC(C)(C)n1nnnc1C(NCCNc1ccnc2cc(Cl)ccc12)c1ccc(Cl)c(Cl)c1 (stereo not drawn) [TK900D]
- stock solution stability in methanol, % Reference (peak area vs fresh) ([4]; room temperature): 106.9%
- stock solution stability in methanol, % Reference (peak area vs fresh) ([4]; ~ 5°C): 105.2%
- stock solution stability in methanol, % Reference (peak area vs fresh) ([4]; ~ -20°C): 100.3%
- stability in methanol (in words) [4]: stable
- IC50 (CHO mammalian cell line): 10500 nM
- IC50 [1]: 8.2 nM
- freeze-thaw stability (in words) ([5]; at least three freeze-thaw cycles): stable
- Freeze and thaw stability, % Bias from nominal ([5]; High (800.0 ng/ml)): 6.6%
- Freeze and thaw stability, % Bias from nominal ([5]; Low (10.01 ng/ml)): 8.6%
- IC50 [2]: 30.5 nM
- Blood CL total ([6]; IV 2.5 mg/kg): 48.9 mL/min/kg
- Vd ([6]; IV 2.5 mg/kg): 7.9 L/kg
- Vss ([6]; IV 2.5 mg/kg): 8.7 L/kg
- AUC 0 - ∞ ([6]; IV 2.5 mg/kg): 104 µmol·min/L
- Apparent t 1/2 ([6]; IV 2.5 mg/kg): 1.9 h
- Blood CL total ([6]; IV 5.0 mg/kg): 44.8 mL/min/kg
- Vd ([6]; IV 5.0 mg/kg): 8.9 L/kg
- Vss ([6]; IV 5.0 mg/kg): 9.1 L/kg
- AUC 0 - ∞ ([6]; IV 5.0 mg/kg): 222 µmol·min/L
- Apparent t 1/2 ([6]; IV 5.0 mg/kg): 2.3 h
- T max ([6]; oral 20 mg/kg): 1.4 h
- Bioavailability ([6]; oral 20 mg/kg vs IV 2.5 mg/kg): 30.8%
- AUC 0 - ∞ ([6]; oral 20 mg/kg): 256 µmol·min/L
- Cmax ([6]; oral 20 mg/kg): 540 nM
- Apparent t 1/2 ([6]; oral 20 mg/kg): 6.0 h
- T max ([6]; oral 40 mg/kg): 1.4 h
- Bioavailability ([6]; oral 40 mg/kg vs IV 5 mg/kg): 16.2%
- AUC 0 - ∞ ([6]; oral 40 mg/kg): 287 µmol·min/L
- Cmax ([6]; oral 40 mg/kg): 790 nM
- Apparent t 1/2 ([6]; oral 40 mg/kg): 3.9 h
- half-life [6, 10]: 2 to 6 h
- half-life [6, 11]: 4 to 6 h
- IC50 [3]: 0.4 nM
- On bench stability, % Bias from nominal ([7]; High (800.0 ng/ml)): 8.3%
- On bench stability, % Bias from nominal ([7]; Low (10.01 ng/ml)): 5.2%
- on-bench stability (in words) ([7]; ~ 12 h on-bench at room temperature): stable
- OIS (on-instrument stability), % Bias ([8]; High (800.0 ng/ml)): 0.9%
- OIS (on-instrument stability), % Bias ([8]; Low (10.01 ng/ml)): 4.5%
- on-instrument stability (in words) [8]: stable
- stability in human whole blood (in words) ([9]; 181 days stored at -80°C): stable
- Long term stability, % Bias from nominal ([9]; High (800.0 ng/ml)): 0.7%
- Long term stability, % Bias from nominal ([9]; Low (10.01 ng/ml)): -4.0%

SMILES: CC(C)(C)n1nnnc1C(NCCNc1ccnc2cc(Cl)ccc12)c1ccc(Cl)cc1 (stereo not drawn) [TK900E]
- stock solution stability in methanol, % Reference (peak area vs fresh) ([4]; room temperature): 102.8%
- stock solution stability in methanol, % Reference (peak area vs fresh) ([4]; ~ 5°C): 103.5%
- stock solution stability in methanol, % Reference (peak area vs fresh) ([4]; ~ -20°C): 98.2%
- stability in methanol (in words) [4]: stable
- IC50 [1]: 1 nM
- IC50 [2]: 25.5 nM
- Blood CL total ([6]; IV 2.5 mg/kg): 51.2 mL/min/kg
- Vd ([6]; IV 2.5 mg/kg): 7.0 L/kg
- Vss ([6]; IV 2.5 mg/kg): 6.5 L/kg
- AUC 0 - ∞ ([6]; IV 2.5 mg/kg): 107 µmol·min/L
- Apparent t 1/2 ([6]; IV 2.5 mg/kg): 1.6 h
- Blood CL total ([6]; IV 5.0 mg/kg): 51.0 mL/min/kg
- Vd ([6]; IV 5.0 mg/kg): 10.3 L/kg
- Vss ([6]; IV 5.0 mg/kg): 12.6 L/kg
- AUC 0 - ∞ ([6]; IV 5.0 mg/kg): 221 µmol·min/L
- Apparent t 1/2 ([6]; IV 5.0 mg/kg): 2.5 h
- T max ([6]; oral 20 mg/kg): 0.8 h
- Bioavailability ([6]; oral 20 mg/kg vs IV 2.5 mg/kg): 25.9%
- AUC 0 - ∞ ([6]; oral 20 mg/kg): 222 µmol·min/L
- Cmax ([6]; oral 20 mg/kg): 940 nM
- Apparent t 1/2 ([6]; oral 20 mg/kg): 3.6 h
- T max ([6]; oral 40 mg/kg): 1.0 h
- Bioavailability ([6]; oral 40 mg/kg vs IV 5 mg/kg): 30.6%
- AUC 0 - ∞ ([6]; oral 40 mg/kg): 541 µmol·min/L
- Cmax ([6]; oral 40 mg/kg): 2810 nM
- Apparent t 1/2 ([6]; oral 40 mg/kg): 4.0 h
- half-life [6, 10]: 1.6 to 4 h
- half-life [6, 11]: 3.6 to 4 h
- IC50 [3]: 2 nM
- on-instrument stability (in words) [8]: stable

Reference: paper PMC3916804, “The development and validation of an LC-MS/MS method for the determination of a new anti-malarial compound (TK900D) in human whole blood and its application to pharmacokinetic studies in mice” (Malaria Journal, 2014)
